Experimental data taken from patent publication US9833497B2, “Human originated EGF domain proteins and use of the same” (CHENGDU SOURCEBIO LIMITED-LIABILITY COMPANY, priority 2013, dated 2017).

Legend:
Type in all cases: cell-based
Proteus mirabilis = assay: MIC against Gram-negative bacteria: Proteus mirabilis; settings: 5×10^5 CFU/mL
Method in brief: (§1)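 Growth inhibition by human EGF domain proteins was scored in LB liquid culture seeded at 5×10^5 CFU/mL. Protein was applied as a two-fold dilution series in triplicate, with shaking incubation at 37° C; MIC is the lowest concentration giving no growth.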

Aeromonas hydrophila = assay: MIC against Gram-negative bacteria: Aeromonas hydrophila; settings: 5×10^5 CFU/mL
Method in brief: as §1

Moraxella catarrhalis = assay: MIC against Gram-negative bacteria: Moraxella catarrhalis; settings: 5×10^5 CFU/mL
Method in brief: as §1

Pseudomonas aeruginosa = assay: MIC against Gram-negative bacteria: Pseudomonas aeruginosa; settings: 5×10^5 CFU/mL
Method in brief: as §1

Enterobacter cloacae = assay: MIC against Gram-negative bacteria: Enterobacter cloacae; settings: 5×10^5 CFU/mL
Method in brief: as §1

Proteus vulgaris = assay: MIC against Gram-negative bacteria: Proteus vulgaris; settings: 5×10^5 CFU/mL
Method in brief: as §1

Citrobacter diversus = assay: MIC against Gram-negative bacteria: Citrobacter diversus; settings: 5×10^5 CFU/mL
Method in brief: as §1

Serratia marcescens = assay: MIC against Gram-negative bacteria: Serratia marcescens; settings: 5×10^5 CFU/mL
Method in brief: as §1

Klebsiella pneumonia = assay: MIC against Gram-negative bacteria: Klebsiella pneumonia; settings: 5×10^5 CFU/mL
Method in brief: as §1

E. coli BL21 = assay: MIC against Gram-negative bacteria: E. coli BL21; settings: 5×10^5 CFU/mL
Method in brief: as §1

E. coli DH5α = assay: Antibacterial activity: MIC and growth curve against E. coli DH5α in 96-well plate; settings: minimal inhibitory concentration against E. coli DH5α; 96-well plate, 5×10^5 CFU/mL, 37° C., judged after 8 h
Method in brief: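 Log-phase bacteria (OD600 ~0.5) resuspended in LB at 5×10^5 CFU/mL, exposed to recombinant protein at 50, 25, 12.5 μg/mL final in triplicate, 37 °C shaking at 175 rpm. OD600 read every 30 min; MIC is lowest concentration showing no growth.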

[1] = Proteus mirabilis, 96-well plate, 37° C., 10 h
[2] = Aeromonas hydrophila, 96-well plate, 37° C., 10 h
[3] = Moraxella catarrhalis, 96-well plate, 37° C., 10 h
[4] = Pseudomonas aeruginosa, 96-well plate, 37° C., 10 h
[5] = Enterobacter cloacae, 96-well plate, 37° C., 10 h
[6] = Proteus vulgaris, 96-well plate, 37° C., 10 h
[7] = Citrobacter diversus, 96-well plate, 37° C., 10 h
[8] = Serratia marcescens, 96-well plate, 37° C., 10 h
[9] = Klebsiella pneumonia, 96-well plate, 37° C., 10 h
[10] = E. coli BL21, 96-well plate, 37° C., 10 h
[11] = P. mirabilis, 10 h cultivation at 37° C.
[12] = A. hydrophila, 10 h cultivation at 37° C.
[13] = M. catarrhalis, 10 h cultivation at 37° C.
[14] = P. aeruginosa, 10 h cultivation at 37° C.
[15] = E. cloacae, 10 h cultivation at 37° C.
[16] = P. vulgaris, 10 h cultivation at 37° C.
[17] = C. diversus, 10 h cultivation at 37° C.
[18] = S. marcescens, 10 h cultivation at 37° C.
[19] = K. pneumonia, 10 h cultivation at 37° C.
[20] = E. coli BL21, 10 h cultivation at 37° C.

With “PRT1282 (SLDSCSSGPCENGGTCHAQEGEDAPFTCSCPTGFEGPTCG; listed as Homo sapiens)” the “MIC against P. mirabilis” value (Proteus mirabilis; [1]) was 12.5 µg/mL, the “MIC against A. hydrophila” value (Aeromonas hydrophila; [2]) was 12.5 µg/mL and the “MIC against M. catarrhalis” value (Moraxella catarrhalis; [3]) was 25 µg/mL. For the same substance, the “MIC against P. aeruginosa” value (Pseudomonas aeruginosa; [4]) was 12.5 µg/mL, the “MIC against E. cloacae” value (Enterobacter cloacae; [5]) was 25 µg/mL and the “MIC against P. vulgaris” value (Proteus vulgaris; [6]) was 25 µg/mL. The “MIC against C. diversus” value (Citrobacter diversus; [7]) was 50 µg/mL, the “MIC against S. marcescens” value (Serratia marcescens; [8]) was 50 µg/mL and the “MIC against K. pneumonia” value (Klebsiella pneumonia; [9]) was 50 µg/mL. The “MIC against E. coli BL21” value (E. coli BL21; [10]) was 50 µg/mL and the MIC (E. coli DH5α) was 12.5 µg/mL.

With “PRT774 (LTLRCDYYGCNQTADDCLNGLACDCKSDLQRPNPQSPFCV; listed as Homo sapiens)” the “MIC (μg/mL) P. mirabilis” value (Proteus mirabilis; [11]) was 12.5 µg/mL, the “MIC (μg/mL) A. hydrophila” value (Aeromonas hydrophila; [12]) was 25 µg/mL and the “MIC (μg/mL) M. catarrhalis” value (Moraxella catarrhalis; [13]) was 12.5 µg/mL. For the same substance, the “MIC (μg/mL) P. aeruginosa” value (Pseudomonas aeruginosa; [14]) was 12.5 µg/mL, the “MIC (μg/mL) E. cloacae” value (Enterobacter cloacae; [15]) was 12.5 µg/mL and the “MIC (μg/mL) P. vulgaris” value (Proteus vulgaris; [16]) was 12.5 µg/mL. The “MIC (μg/mL) C. diversus” value (Citrobacter diversus; [17]) was 12.5 µg/mL, the “MIC (μg/mL) S. marcescens” value (Serratia marcescens; [18]) was 50 µg/mL and the “MIC (μg/mL) K. pneumonia” value (Klebsiella pneumonia; [19]) was 25 µg/mL. For the same substance, the “MIC (μg/mL) E. coli BL21” value (E. coli BL21; [20]) was 12.5 µg/mL and the MIC (E. coli DH5α) was 50 µg/mL.

“PRT729 (GSNACNQPTHPNGDCSHFCFPVPNFQRVCGCPYGMRLASNHLTCE; listed as Homo sapiens)” was tested, and the “MIC P. mirabilis” value (Proteus mirabilis; 96-well plate, 37° C., 10 h) was 12.5 µg/mL, the “MIC A. hydrophila” value (Aeromonas hydrophila; 96-well plate, 37° C., 10 h) was 25 µg/mL and the “MIC M. catarrhalis” value (Moraxella catarrhalis; 96-well plate, 37° C., 10 h) was 25 µg/mL. The “MIC P. aeruginosa” value (Pseudomonas aeruginosa; 96-well plate, 37° C., 10 h) was 12.5 µg/mL, the “MIC E. cloacae” value (Enterobacter cloacae; 96-well plate, 37° C., 10 h) was 12.5 µg/mL and the “MIC P. vulgaris” value (Proteus vulgaris; 96-well plate, 37° C., 10 h) was 25 µg/mL. For the same substance, the “MIC C. diversus” value (Citrobacter diversus; 96-well plate, 37° C., 10 h) was 12.5 µg/mL, the “MIC S. marcescens” value (Serratia marcescens; 96-well plate, 37° C., 10 h) was 50 µg/mL and the “MIC K. pneumonia” value (Klebsiella pneumonia; 96-well plate, 37° C., 10 h) was 25 µg/mL. The “MIC E. coli BL21” value (E. coli BL21; 96-well plate, 37° C., 10 h) was 25 µg/mL and the MIC (E. coli DH5α) was 12.5 µg/mL.

“PRT414 (DIDECESGIHNCLPDFICQNTLGSFRCRPKLQCKSGFIQDALGNCI; listed as Homo sapiens)” showed an MIC (Proteus mirabilis; [11]) of 12.5 µg/mL, an MIC (Aeromonas hydrophila; [12]) of 25 µg/mL and an MIC (Moraxella catarrhalis; [13]) of 25 µg/mL. For the same substance, the MIC (Pseudomonas aeruginosa; [14]) was 12.5 µg/mL, the MIC (Enterobacter cloacae; [15]) was 12.5 µg/mL and the MIC (Proteus vulgaris; [16]) was 25 µg/mL. For the same substance, the MIC (Citrobacter diversus; [17]) was 12.5 µg/mL, the MIC (Serratia marcescens; [18]) was 50 µg/mL and the MIC (Klebsiella pneumonia; [19]) was 12.5 µg/mL. It also gave an MIC (E. coli BL21; [20]) of 12.5 µg/mL and an MIC (E. coli DH5α) of 12.5 µg/mL.

“PRT42 (CQCNGHSKCINQSICEKCENLTTGKHCETCISGFYGDPTNGGKCQP; listed as Homo sapiens)” was tested, and the “MIC (μg/mL) P. mirabilis” value (Proteus mirabilis; [1]) was 25 µg/mL, the “MIC (μg/mL) A. hydrophila” value (Aeromonas hydrophila; [2]) was 12.5 µg/mL and the “MIC (μg/mL) M. catarrhalis” value (Moraxella catarrhalis; [3]) was 12.5 µg/mL. For the same substance, the “MIC (μg/mL) P. aeruginosa” value (Pseudomonas aeruginosa; [4]) was 25 µg/mL, the “MIC (μg/mL) E. cloacae” value (Enterobacter cloacae; [5]) was 25 µg/mL and the “MIC (μg/mL) P. vulgaris” value (Proteus vulgaris; [6]) was 100 µg/mL. The “MIC (μg/mL) C. diversus” value (Citrobacter diversus; [7]) was 25 µg/mL, the “MIC (μg/mL) S. marcescens” value (Serratia marcescens; [8]) was 50 µg/mL and the “MIC (μg/mL) K. pneumonia” value (Klebsiella pneumonia; [9]) was 12.5 µg/mL. The “MIC (μg/mL) E. coli BL21” value (E. coli BL21; [10]) was 12.5 µg/mL and the MIC (E. coli DH5α) was 25 µg/mL.

“PRT1409 (RACHPRCAEHGTCKDGKCECSQGWNGEHCT; listed as Homo sapiens)” was tested, and the “MIC against P. mirabilis” value (Proteus mirabilis; Proteus mirabilis, 10 h cultivation at 37° C.) was 50 µg/mL, the “MIC against A. hydrophila” value (Aeromonas hydrophila; Aeromonas hydrophila, 10 h cultivation at 37° C.) was 12.5 µg/mL and the “MIC against M. catarrhalis” value (Moraxella catarrhalis; Moraxella catarrhalis, 10 h cultivation at 37° C.) was 12.5 µg/mL. The “MIC against P. aeruginosa” value (Pseudomonas aeruginosa; Pseudomonas aeruginosa, 10 h cultivation at 37° C.) was 12.5 µg/mL, the “MIC against E. cloacae” value (Enterobacter cloacae; Enterobacter cloacae, 10 h cultivation at 37° C.) was 12.5 µg/mL and the “MIC against P. vulgaris” value (Proteus vulgaris; Proteus vulgaris, 10 h cultivation at 37° C.) was 12.5 µg/mL. For the same substance, the “MIC against C. diversus” value (Citrobacter diversus; Citrobacter diversus, 10 h cultivation at 37° C.) was 12.5 µg/mL, the “MIC against S. marcescens” value (Serratia marcescens; Serratia marcescens, 10 h cultivation at 37° C.) was 50 µg/mL and the “MIC against K. pneumonia” value (Klebsiella pneumonia; Klebsiella pneumonia, 10 h cultivation at 37° C.) was 12.5 µg/mL. For the same substance, the “MIC against E. coli BL21” value (E. coli BL21; [20]) was 12.5 µg/mL and the MIC (E. coli DH5α) was 12.5 µg/mL.
